{"source": "patent US7160908B2", "about": "“Dynamic anticancer platinum compounds” (Unitech Pharmaceuticals, Inc., priority 2003, dated 2007)", "key": {"Colon, HT-29 Tumor Cells": {"system": "Colon, HT-29 Tumor Cells", "assay": "Anti-proliferative activity, alamarBlue cell viability, HT-29", "format": "cell-based, human", "conditions": "for Percent Growth (Mean of 2): 72-hour incubation, vehicle = 100", "procedure": "(§1) UTD-4-A was dissolved in 100% DMSO and then diluted with sterile distilled water to obtain initial working solutions of […] in 40% DMSO. A 100-fold dilution was further made in culture media to generate final assay concentrations of […] in 0.4% DMSO.\n(§2) Aliquots of […] of cell suspension (about 2.5×10^3/well) were placed in 96-well microtiter plates in an atmosphere of 5% CO2 at 37° C. After 24 hours, […] of growth medium and […] of test solution or vehicle (40% DMSO) were added respectively per well in duplicate for an additional 72-hour incubation.\n(§3) Thus, the final concentration of DMSO was 0.4%. The test compound, UTD-4-A, was evaluated at concentrations of […]. At the end of incubation, […] of 90% alamarBlue reagent was added to each well for another 6-hour incubation before detection of cell viability by fluorescent intensity. Fluorescent intensity was measured using a Spectraflour Plus plate reader with excitation at 530 nm and emission at 590 nm."}, "[1]": {"system": "Ovary, OVCAR-3 Tumor Cell", "assay": "Anti-proliferative activity, alamarBlue cell viability, OVCAR-3", "format": "cell-based, human", "conditions": "for Percent Growth (Mean of 2): 72-hour incubation, vehicle = 100", "procedure": "as §1, §2, §3"}, "[2]": {"conditions": "concentrations between 10 and 100 μM"}}, "data": [{"substance": "cis-[Pt(NH3)(NH2—CHCH3—CO—O)]Cl [UTD-4-A]", "values": [{"measurement": "Percent Growth (Mean of 2)", "setting": "Colon, HT-29 Tumor Cells; 1 μM", "result": "100 ± 6"}, {"measurement": "Percent Growth (Mean of 2)", "setting": "Colon, HT-29 Tumor Cells; 10 μM", "result": "95 ± 8"}, {"measurement": "Percent Growth (Mean of 2)", "setting": "Colon, HT-29 Tumor Cells; 100 μM", "result": "41 ± 4"}, {"measurement": "growth inhibition relative to the vehicle-treated control", "setting": "Colon, HT-29 Tumor Cells; [2]", "result": "significant growth inhibition"}, {"measurement": "Percent Growth (Mean of 2)", "setting": "[1]; 1 μM", "result": "100 ± 6"}, {"measurement": "Percent Growth (Mean of 2)", "setting": "[1]; 10 μM", "result": "85 ± 3"}, {"measurement": "Percent Growth (Mean of 2)", "setting": "[1]; 100 μM", "result": "30 ± 3"}, {"measurement": "growth inhibition relative to the vehicle-treated control", "setting": "[1]; [2]", "result": "significant growth inhibition"}]}]}
